Measured values published in PMC9692677, “Virtual Cocrystal Screening of Adefovir Dipivoxyl: Identification of New Solid Forms with Improved Dissolution and Permeation Profiles” (Pharmaceutics, 2022).
≈ marks a conversion by molar mass, not a printed value. Where “and” joins values, the source holds several entries; their conditions need not be identical. Equal entries are not always repeated. Where two headings read alike, the source gives them in different places.

Experiments:
Assay type in all cases: physicochemical
[1] = Biphasic four-pH sector dissolution with 1-decanol lipid layer (Pion inForm); details: for Transfer of AD towards the organic layer (1-decanol): pH 4.0 sector
Experimental: The third set of measurements were performed using a Pion inForm automated titrator system from Pion (Pion-Inc., Billerica, MA, USA, www.pion-inc.com) with an incorporated UV-Vis spectrophotometer to acquire the spectrophotometric data. The optical system also consisted of a photodiode array detector with a deuterium lamp and included two fiber optic dip probes. The titrator module included a temperature controller (a Peltier device with in-situ thermocouple), pH electrode, an overhead stirrer and motorized dispensers for the automatic delivery of assay titrants and reagents via capillaries. The instrumentation was operated by inForm Control and Assay Designer software (version 1.6.0.0). The Pion inForm system was used for the biphasic dissolution studies. Samples were prepared as described previously, and studies were performed consecutively through the four different pH sectors, with the addition of a lipid layer (1-decanol) in the second sector to mimic the absorption in the GIT. The dissolution media consisted of 40 mL of aqueous solution, which was added automatically to an 80 mL dissolution vessel and brought to 25 °C (±0.1 °C). Once the media were adjusted to the starting pH and temperature, each sample was added automatically, and data collection was started from the point of sample introduction. The lipid layer (30 mL) was added in the second pH sector after the pH was adjusted to 4.0 (see Table S4 for exact experimental details). The two UV optic fiber probes each with a 10mm path length, were used on the inForm platform for quantitating the drug in the aqueous phase and in the lipid layer. Stirring of the solution was continuous at a rate of 100 rpm through the four sectors. Spectral and pH data were collected with a frequency of 30 s over a period of 2 h.
Contrary to GLpKa, which has a fixed probe with a 10 mm path length that cannot be exchangeable with different path length size tips, Pion inForm is provided with two UV probes, both with a 10 mm path length: a fixed path-length and an exchangeable path-length. These probes were used for the aqueous and the lipid media, respectively. In this way, the UV data collected for the three cocrystals could be quantified using the MECs of orcinol, resorcinol and hydroquinone. Moreover, in the inForm system a greater volume of solution is used (40 mL instead of 15 mL of water used for the GLpKa). Therefore, the signal was not saturated, and the UV spectra for the coformers and the adefovir could be distinguished between them.
In order to study dissolution under conditions that mimic in vivo conditions more closely than other systems, the final set of experiments was carried out in a biphasic dissolution system. The test consists again in a four-pH sectors experiment, but in this case, 1-decanol was added in the second sector (pH 4.0) to simulate the contact with lipidic membranes. Then, the API concentration was monitored simultaneously in both phases through two different optic fiber probes.

[2] = Intrinsic dissolution at individual pH sectors (GLpKa, 3 mm disks, 30 min); details: for Dissolution Rate: fit of Noyes–Whitney equation; for % Dissolved at t = 30 min: single-pH sector; for solubility at 30 min: acetate–phosphate buffer with KCl
[3] = XRPD analysis of the tablet surface after the single-pH dissolution experiments
Experimental: X-ray powder diffraction (XRPD) patterns of new cocrystals of AD were measured on a PANalytical (Malvern, UK) X’Pert PRO MPD (transmission configuration with Cu Kα radiation, λ = 1.54187 Å) with a focalizing elliptic mirror and a PIXcel detector and a maximum detector’s active length of 3.347°. Transmission geometry configuration included a convergent beam with a focalizing mirror, a flat sample sandwiched between low absorbing films measuring from 1 to 40° in 2θ, a step size of 0.026° and a measuring time of 8 to 30 min at room temperature (25 °C). Capillary geometry has been used with AD–Resorcinol (Form I) placed in a glass capillary (Lindemman) 0.5 mm in diameter measuring from 2 to 70° in 2θ, with a step size of 0.013° and a total measuring time of 18 h. The powder diffractograms were indexed and the lattice parameters were refined by means of Le Bail fits by means of Dicvol04 [35], and the space group was determined from the systematic absences.
The first set of studies was performed at different pH sectors (1.5, 4.0, 5.5 and 7.4) which are typically encountered in the gastrointestinal tract (GIT), and individual dissolution rates were determined at each pH sector. To perform these experiments, disks of 3mm diameter containing 6–10 mg of the drug or cocrystal were prepared by applying a constant pressure of 0.1 ton for 2 min with a manual hydraulic tablet press (Applied Measurements Specac Ltd, Orpington UK). The tablet was placed in a holder, and only one side of the tablet was exposed to the dissolution medium. The total exposed surface area was 0.07 cm^2. A total of 1.5 mL of 0.125 M acetate–phosphate buffer at pH 1.6 was introduced into the vial without wetting the tablet surface. The instrument then automatically added 13.5 mL of 0.15 M KCl solution and adjusted the pH to the required value (see Table S2 for exact experimental details). Spectra collection started immediately after. Spectra were recorded every 30 s for 30 min. The medium was stirred at a constant rate. The solid state of the remaining disks was analyzed using XRPD.
The XRPD analysis of the tablet surface after the dissolution experiments confirms that there is some transformation of the solid form. The highest transformation occurs for AD tablets, where 20% of the initial AD (Form I) is transformed into the dihydrate. This transformation is reproducible, as deduced by the low error bars in the dissolution profiles. In the case of cocrystals, they mainly remain in its original solid form; the 5–10% of the free AD (Form I) observed in the analysis of the tablets could be the result of AD deposition during the experiments since the saturation concentration is reached very quickly, rather than a solid phase transformation in the surface of the tablet.

[4] = Dissolution in a four-pH sector sequence (pH 1.5 to 7.4, 30 min at each pH, GLpKa)
Experimental: A second set of experiments was performed with the same instrument. However, determinations were made in a full sequence of pHs (from 1.5 to 7.4) maintained for 30 min at each individual pH. To change the pH, KOH was added to the medium (Table S3).
Compared to the single-pH experiments, the four-pH sectors determination provides dynamic information of the dissolution behavior of the compounds along the GIT. Now, the dissolution test starts at pH 1.5, and dissolution is monitored for 30 min. Then, the pH is raised to 4.0, 5.5, and finally, 7.4, monitoring dissolution for 30 min at each pH.

pKa determination = assay: pKa determination
[5] = pH 1.5, SD in parenthesis, n = 3
[6] = pH 4.0, SD in parenthesis, n = 3
[7] = pH 5.5, SD in parenthesis, n = 3
[8] = pH 7.4, SD in parenthesis, n = 3

| Structure (SMILES) | Transfer of AD towards the organic layer (1-decanol) [1] | Dissolution Rate [2, 5] | % Dissolved at t = 30 min [2, 5] | Dissolution Rate [2, 6] | % Dissolved at t = 30 min [2, 6] | Dissolution Rate [2, 7] | % Dissolved at t = 30 min [2, 7] | Dissolution Rate [2, 8] | % Dissolved at t = 30 min [2, 8] | Final Solid Form on tablet surface after dissolution ([3]; pH 1.5) | Final Solid Form on tablet surface after dissolution ([3]; pH 4.0) | Final Solid Form on tablet surface after dissolution ([3]; pH 5.5) | Final Solid Form on tablet surface after dissolution ([3]; pH 7.4) | further results |
| --- | --- | --- | --- | --- | --- | --- | --- | --- | --- | --- | --- | --- | --- | --- |
| CC(C)(C)C(=O)OCOP(=O)(COCCn1cnc2c(N)ncnc21)OCOC(=O)C(C)(C)C.Oc1cccc(O)c1 [AD–Res cocrystal (Form I)] | rapid transfer of AD towards the organic layer | 1015 (6) nmols/min | 39.3 (1.3) % | 63 (2) nmols/min | 16.1 (2.0) % | 19 (1) nmols/min | 12.2 (2.0) % | 15 (1) nmols/min | 10.9 (2.7) % | Cocrystal (Form I) + AD–dihydrate (95%:5%) | Cocrystal (Form I) + AD–dihydrate (95%:5%) | Cocrystal (Form I) + AD–dihydrate (95%:5%) | Cocrystal (Form I) + AD–dihydrate (95%:5%) | – |
| CC(C)(C)C(=O)OCOP(=O)(COCCn1cnc2c(N)ncnc21)OCOC(=O)C(C)(C)C.Cc1cc(O)cc(O)c1 [AD–Orc cocrystal] | rapid transfer of AD towards the organic layer | 626 (40) nmols/min | 39.2 (1.1) % | 147 (47) nmols/min | 14.7 (1.6) % | 17 (1) nmols/min | 10.6 (2.5) % | 17 (3) nmols/min | 13.1 (3.6) % | Cocrystal + AD–dihydrate (90%:10%) | Cocrystal + AD–dihydrate (90%:10%) | Cocrystal + AD–dihydrate (90%:10%) | Cocrystal + AD–dihydrate (90%:10%) | – |
| CC(C)(C)C(=O)OCOP(=O)(COCCn1cnc2c(N)ncnc21)OCOC(=O)C(C)(C)C.Oc1ccc(O)cc1 [AD–hydroquinone cocrystal] | slightly slower | – | – | – | – | – | – | – | – | – | – | – | – | Slope of dissolution profile in the first pH sector ([1]; pH 1.5, aqueous phase): inferior slope compared to the cocrystals with resorcinol and orcinol |
| CC(C)(C)C(=O)OCOP(=O)(COCCn1cnc2c(N)ncnc21)OCOC(=O)C(C)(C)C [AD, 9-{2-[Bis(pivaloyloxymethoxy)phosphinylmethoxy]ethyl}adenine] | even slower | 315 (4) nmols/min | 29.0 (1.0) % | 35 (4) nmols/min | 5.7% and 5.7 (0.4) % | 21 (4) nmols/min | 3.8% and 3.8 (0.6) % | 17 (2) nmols/min | 3.3% and 3.3 (0.4) % | Form I + AD–dihydrate (80%:20%) | Form I + AD–dihydrate (80%:20%) | Form I + AD–dihydrate (80%:20%) | Form I + AD–dihydrate (80%:20%) | % of API dissolved, four-pH sector test ([4]; pH 1.5 sector): 30%; % of AD in solution, four-pH sector test ([4]; pH 4.0 sector): 25%; % of AD in solution, four-pH sector test ([4]; pH 5.5 sector): 20%; % of AD in solution, four-pH sector test ([4]; pH 7.4 sector): 20%; pKa (pKa determination): 3.78 ± 0.05; solubility at 30 min ([2]; aqueous buffer, thermodynamic from solid, pH 1.5, SD in parenthesis, n = 3, read-out: AD Solubility): 325 µM (≈ 163 µg/mL); solubility at 30 min ([2]; aqueous buffer, thermodynamic from solid, pH 4.0, SD in parenthesis, n = 3, read-out: AD Solubility, extrapolated (from Equation (1))): 139 µM (≈ 69.7 µg/mL); solubility at 30 min ([2]; aqueous buffer, thermodynamic from solid, pH 5.5, SD in parenthesis, n = 3, read-out: AD Solubility, extrapolated (from Equation (1))): 128 µM (≈ 64.2 µg/mL); solubility at 30 min ([2]; aqueous buffer, thermodynamic from solid, pH 7.4, SD in parenthesis, n = 3, read-out: AD Solubility, extrapolated (from Equation (1))): 123 µM (≈ 61.7 µg/mL); solubility at 30 min ([2]; pH 1.5, read-out: Solubility for AD indicated by the plateaus of the cocrystal profiles): ~300 µM (≈ 150 µg/mL); Saturation concentration of AD ([2]; rest of pH values (4.0, 5.5, 7.4), particularly pH 5.5 and 7.4): around 100 μM; Share of the initial solid form transformed / other form found on tablet after dissolution ([3]; XRPD of tablet surface): 20% |
